# Experimental data as given in patent publication US20040024033A1 (priority 1998, published 2004).
# Tests used:
# [1] = tested on: human HCT-15 colon carcinoma; assay type: in vivo, female BALB/c nude mice
# Method: (§1) Female or male BALB/c nu/nu (nude) mice are kept under sterile conditions (10 to 12 mice per Type III cage) with free access to food and water. Mice weigh between 20 and 25 grams at the time of tumor implantation. Tumors are established by subcutaneous injection of cells (minimum 2×10^6 cells in 100 μl PBS or medium) in carrier mice (4-8 mice per cell line). The resulting tumors are serially passaged for a minimum of three consecutive transplantations prior to start of treatment. Tumor fragments (approx. 25 mg) are implanted s.c. into the left flank of animals with a 13-gauge trocar needle while the mice are exposed to Forene (Abbott, Switzerland) anesthesia.
# (§2) Tumor growth and body weights are monitored once or twice weekly. All treatments are administered intravenously (i.v.) and are initiated when a mean tumor volume of approximately 100 to 250 mm^3 is attained, depending upon the tumor type. Tumor volumes are determined using the formula […] (see Cancer Chemother. Pharmacol. 24:148-154, [1989]). Treatments with epothilone B vary the dose and the frequency of administration. Comparator agents are administered according to previously determined optimal treatment regimens. In addition to presenting changes in tumor volumes over the course of treatment, antitumor activity is expressed as T/C% (mean increase of tumor volumes of treated animals divided by the mean increase of tumor volumes of control animals multiplied by 100). Tumor regression (%) represents the smallest mean tumor volume compared to the mean tumor volume at the start of treatment, according to the formula Regression (%)=(1−Vend/Vstart)×100 (Vend=final mean tumor volume, Vstart=mean tumor volume at the start of treatment. Any animals in which the tumor has reached a size exceeding approximately 1.5 to 2.5 cm^3 are sacrificed. Details can be found below.
# Tumor fragments of approximately 25 mg are implanted into the left flank of each female nude mouse (n=8 per group). Treatments are started on day 14 after tumor transplantation. Epothilone B is administered once at 4 mg/kg, i.v. on day 14.5-Fluorouracil is administered at 75 mg/kg, i.v., on days 14 and 21. TAXOL® is administered i.v. at 20 mg/kg/day, every second day for 5 treatments (days 14, 16, 18, 20 and 22). Antitumor activity is expressed as T/C% (mean increase of tumor volumes of treated animals divided by the mean increase of tumor volumes of control animals multiplied by 100). Tumor regression (%) represents the final mean tumor volume compares to the mean tumor volume at the start of treatment. Δ Tumor volumes represent the tumor volume on the last treatment day minus the tumor volume on the first treatment day. Statistical analyses on Δ tumor volumes uses Dunnett's test to compare treatment groups to controls. Statistical analyses on body weight changes uses paired t-tests comparing body weights before treatment to those at the end of treatment; mice weigh ˜20-25 g at the start of treatment. Not significant is indicated by the abbreviation ,ns”. Data presented are means±SEM from animals surviving to the end of the experiment.
# [2] = tested on: human COLO 205 colon tumors; assay type: in vivo, female BALB/c nude mice; details: 75 mg/kg, i.v. every 7 days; day 32
# Method: as §1, §2
# Tumor fragments of approximately 25 mg are implanted into the left flank of each female nude mouse (n=7 per group); a subcutaneous estrogen pellet is placed on the opposite flank. Treatments are started on day 14 after tumor transplantation. epothilone B is administered at 4 mg/kg, i.v., either once or once per week (days 14, 21, 28) or every second week (days 14 and 28). 5-fluorouracil is administered i.v. at 75 mg/kg on days 14, 21, 28. Data presented are from animals surviving to day 32, four days after the last treatments. Antitumor activity is expressed as T/C% (mean increase of tumor volumes of treated animals divided by the mean increase of tumor volumes of control animals multiplied by 100). Tumor regression (%) represents the final mean tumor volume compared to the mean tumor volume at the start of treatment. Changes (A) in tumor volumes represent the tumor volume on the last treatment day minus the tumor volume on the first treatment day.
# [3] = tested on: PC-3M (Prostate); assay: Antiproliferative assay, PC-3M; assay type: cell-based; details: Homo sapiens, 72 h, 3 d exposure, mean ± SD, read-out: IC50-values for growth inhibition
# Method: A human androgen-independent prostate cancer cell line is used to establish subcutaneous and orthotopic models in mice. The human metastatic prostate carcinoma PC-3M is obtained from Dr. I. J. Fidler (MD Anderson Cancer Center, Houston, Tex., USA) and is cultured in Ham's F12K media supplemented with 7% v/v FBS. The PC-3M cell line is the result of isolation from liver metastasis produced in nude mice subsequent to intrasplenic injection of PC-3 cells [ATCC CRL 1435; American Type Culture Collection (Rockville, Md., USA)], and they can grow in Eagle's MEM supplemented with 10% fetal bovine serum, sodium pyruvate, non-essential amino acids, L-glutamine, a two-fold vitamin solution (Gibco Laboratories, Long Island, N.Y.) and penicillin-streptomycin (Flow Laboratories, Rockville, Md.). The PC-3M cell line is hormone-insensitive (that is, it grows in the absence of androgens). […] No normal Y chromosomes can be detected by Q-band analysis.
# (§3) Antiproliferative assays are performed as previously described (Int. J. Cancer 43, 851-6 (1989)). […] After washing, the dye is eluted with 3% V/V HCl and the optical density measured at 665 nm with a SpectraMax 340 (Bucherer, Basel, Switzerland). IC50 values are determined by a computerized system (SoftPro, Bucherer, Basel, Switzerland) using the formula (OD test−OD start)/(OD control−OD start)×100. […]
# [4] = tested on: KB-8511 (Epidermoid, MDR); assay: Antiproliferative assay, KB-8511; assay type: cell-based; details: Homo sapiens, 48 h, 2 d exposure, mean ± SD, read-out: IC50-values for growth inhibition
# Method: The human epidermal (mouth) carcinoma cell line KB-8511 (a P-gp over-expressing cell line derived from the epidermoid (mouth) KB-31 carcinoma cell line) is obtained from Dr. R. M. Baker, Roswell Park Memorial Institute (Buffalo, N.Y., USA) (for description see Akiyama et al., Somat. Cell. Mol. Genetics 11, 117-126 (1985) and Fojo A., et al., Cancer Res. 45, 3002-3007 (1985)) and is cultured as previously described (Meyer, T., et al., Int. J. Cancer 43, 851-856 (1989)): KB-8511 cells, like KB-31, are derived from the KB cell line (ATCC) and they are human epidermal carcinoma cells; KB-31 cells can be grown in mono-layer using Dulbecco's modified Eagle's medium (D-MEM) with 10% fetal calf serum (M.A. Bioproducts), L-glutamine (Flow), penicillin (50 units/ml) and streptomycin (50 μg/ml (Flow); they then grow with a doubling time of 22 h, and their relative plating efficiency is approximately 60%.
# as §3
# [5] = tested on: ZR-75-1 (Breast); assay: Antiproliferative assay, ZR-75-1; assay type: cell-based; details: Homo sapiens, 120 h, 5 d exposure, mean ± SD, n = 3, read-out: IC50-values for growth inhibition
# Method: (§4) Antiproliferative assays are performed as previously described (Int. J. Cancer 43, 851-6 (1989)). Briefly, cells are seeded at 1.5×10^3 cells/well into 96-well microtiter plates and incubated overnight. Compounds are added in serial dilutions on day 1. The plates are then incubated for an additional 2 to 5 days, allowing for at least one cell doubling (cell line dependent), after which the cells are fixed with 3.3% v/v glutaraldehyde, washed with water and stained with 0.05% w/v methylene blue. After washing, the dye is eluted with 3% V/V HCl and the optical density measured at 665 nm with a SpectraMax 340 (Bucherer, Basel, Switzerland). IC50 values are determined by a computerized system (SoftPro, Bucherer, Basel, Switzerland) using the formula (OD test−OD start)/(OD control−OD start)×100. IC50 is defined as the drug concentration which leads to 50% of cells per well compared to control cultures (100%) at the end of incubation period.
# [6] = tested on: HCT-15 (Colon); assay: Antiproliferative assay, HCT-15; assay type: cell-based; details: Homo sapiens, 120 h, 5 d exposure, mean ± SD, n = 3, read-out: IC50-values for growth inhibition
# Description: Human colorectal adenocarcinoma cell line HCT-15 (ATCC CCL 225) is from the American Type Culture Collection (Rockville, Md., USA), and the cells are cultivated in vitro as recommended by the supplier. HCT-15 is an epithelial-like cell line (Cancer Res. 39: 1020-25 [1979]) that is multi-drug resistant by virtue of over-expression of P-glycoprotein (P-gp, gp170, MDR-1; Anticancer Res. 11: 1309-12 [1991]; J. Biol. Chem. 264: 18031-40 [1989]; Int. J. Cancer 1991; 49: 696-703 [1991]) and glutathione-dependent resistance mechanisms (Int. J. Cancer 1991; 49: 688-95.[1991]).
# as §4, with “IC50 is defined as the drug concentration which leads to 50% of cells per well compared to control cultures (100%) at the end of incubation period.” left out
compound,measurement,setting,value
"O=c1[nH]cc(F)c(=O)[nH]1 [5-fluorouracil, reference compound]",% Body Weight Change,"[1]; 75 mg/kg, i.v., on days 14 and 21",9 ± 4%
same,D Body Weight,"[1]; 75 mg/kg, i.v., on days 14 and 21, mean ± SEM",2.0 ± 0.7 g
same,Mortalities (deaths),[1]; two 75 mg/kg administrations,50%
same,T/C,[2],18%
CC(=O)O[C@H]1C(=O)[C@@]2(C)[C@H]([C@H](OC(=O)c3ccccc3)[C@]3(O)C[C@H](OC(=O)[C@H](O)[C@@H](NC(=O)c4ccccc4)c4ccccc4)C(C)=C1C3(C)C)[C@]1(OC(C)=O)CO[C@@H]1C[C@@H]2O [paclitaxel],IC50,[3],0.00674 µM
same,IC50,[4],0.994 µM
same,IC50,[5],0.0036 ± 0.00187 µM
same,IC50,[6],0.106 ± 0.054 µM
